Test systems include COLO 205; HOP-92; OVCAR-5; HCT-15; IGROV-1; Hs-578T; M14; HCT-116; TK-10; EKVX; ACHN; A549; MOLT-4; RXF 393; HOP-62; UACC-257; MCF7; NCI/ADR-RES; K562; SK-OV-3.
Assay in all cases: inhibition of tumour cell growth, NCI panel, 48 h

The text below walks through data of ChEMBL document CHEMBL1201862, “PubChem BioAssay data set” (2004).

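In this assay, cells in 96-well plates receive the compound at five concentrations for 48 hours. Endpoints are linearly interpolated between the surrounding concentrations. The concentration for 50% growth inhibition is given as GI50.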 The source made the active and inactive calls. Rule as the data show it: active = GI50 up to about 1.1 µM and inactive = higher.

In the case of `O=C(Nc1ccccc1)OCCN=C1c2ccccc2C(Br)C(Br)c2ccccc21` (stereo not drawn), the GI50 was 4.94 µM (inactive) with COLO 205; 8.81 µM (inactive) with HOP-92; 16 µM (inactive) in the experiment on OVCAR-5; 3.85 µM in the experiment with HCT-15; 6.52 µM (inactive) with IGROV-1; 12.4 µM (inactive) in the experiment with Hs-578T. In addition, the GI50 with M14 is 4.34 µM (inactive); in the experiment on HCT-116 it was 3.88 µM (inactive); in the experiment on TK-10 it was 4.48 µM (inactive); with EKVX, 10 µM (inactive); with ACHN it was 10.2 µM (inactive); in the experiment on A549, 16 µM (inactive). For the same compound, the GI50 with MOLT-4 is 2.01 µM (inactive); in the experiment on RXF 393, 3.93 µM (inactive); in the experiment on HOP-62, 15.1 µM (inactive); in the experiment on UACC-257, 6.59 µM (inactive); with MCF7, 5.68 µM (inactive); with NCI/ADR-RES, 11.7 µM (inactive). Moreover, the GI50 in the experiment with K562 is 2.8 µM (inactive); in the experiment with SK-OV-3 it was 15.7 µM (inactive).
`COC(=O)C1=C(O)c2ccc(Cl)cc2S(=O)(=O)N1C`: the GI50 with COLO 205 was > 100 µM (inactive); in the experiment with HOP-92, 59 µM (inactive); with OVCAR-5 it was > 100 µM (inactive); with HCT-15, 45.1 µM; with IGROV-1 it was 78 µM (inactive); in the experiment with Hs-578T, > 100 µM (inactive). Moreover, the GI50 in the experiment with M14 is 51.1 µM (inactive); with HCT-116, > 100 µM (inactive); in the experiment with TK-10, > 100 µM (inactive); in the experiment on EKVX, 42.2 µM (inactive); with ACHN, > 100 µM (inactive); in the experiment with A549, 44.4 µM (inactive). Further, the GI50 in the experiment on MOLT-4 was > 100 µM (inactive); with RXF 393, > 100 µM (inactive); in the experiment with HOP-62 it was > 10 µM (inactive); in the experiment with UACC-257, 93.3 µM (inactive); in the experiment on MCF7, > 100 µM (inactive); with NCI/ADR-RES it was 19.1 µM (inactive). Also, the GI50 is 32.1 µM (inactive) in the experiment with K562 and > 100 µM (inactive) in the experiment with SK-OV-3.
Consider `CCOC(=O)CCC(NC(=O)c1ccc(Nc2nc3ccccc3nc2-c2cccs2)cc1)C(=O)OCC` (stereo not drawn), for which the GI50 in the experiment with COLO 205 was 25.2 µM (inactive); in the experiment on HOP-92 it was 29.8 µM (inactive); in the experiment with OVCAR-5 it was > 100 µM (inactive); in the experiment with HCT-15 it was 21.9 µM; in the experiment on IGROV-1 it was 28 µM (inactive); with Hs-578T it was 23 µM (inactive). The GI50 in the experiment on M14 is > 100 µM (inactive); in the experiment on HCT-116, 28.4 µM (inactive); with TK-10, 21.2 µM (inactive); in the experiment on EKVX it was 31.6 µM (inactive); in the experiment with ACHN, 31 µM (inactive); in the experiment with A549 it was 63.2 µM (inactive). The GI50 is 7.98 µM (inactive) in the experiment on MOLT-4; 87.3 µM (inactive) in the experiment with RXF 393; > 100 µM (inactive) in the experiment with HOP-62; 29.2 µM (inactive) in the experiment on UACC-257; 26.9 µM (inactive) in the experiment on MCF7; 21.3 µM (inactive) in the experiment with NCI/ADR-RES. Moreover, the GI50 is 12.1 µM (inactive) with K562 and 28.6 µM (inactive) with SK-OV-3.
Regarding `O=C1CC2(CCCc3sccc32)C(=O)N1` (stereo not drawn), the GI50 with COLO 205 is > 100 µM (inactive); with HOP-92, > 100 µM (inactive); in the experiment on OVCAR-5, > 100 µM (inactive); in the experiment with HCT-15, greater than 100 µM; in the experiment on IGROV-1, > 100 µM (inactive); in the experiment on Hs-578T, > 100 µM (inactive). In addition, the GI50 in the experiment with M14, in the experiment on HCT-116, in the experiment with TK-10, with EKVX, with ACHN and in the experiment on A549 was > 100 µM (inactive) throughout. Besides, the GI50 in the experiment on MOLT-4, in the experiment on RXF 393, in the experiment with HOP-62, in the experiment on UACC-257, in the experiment on MCF7 and with NCI/ADR-RES was > 100 µM (inactive) in each case. Also, the GI50 with K562 and with SK-OV-3 was > 100 µM (inactive) each time.
Turning to `O=c1c(Cc2ccc(Cl)cc2)nnc2sc(-c3ccc(-c4ccc(Cl)cc4Cl)o3)nn12`, the GI50 was 72.3 µM (inactive) in the experiment on COLO 205; 38.5 µM (inactive) in the experiment on HOP-92; 94.8 µM (inactive) in the experiment with OVCAR-5; 41.4 µM in the experiment on HCT-15; > 100 µM (inactive) in the experiment with IGROV-1; > 100 µM (inactive) in the experiment with Hs-578T. For the same compound, the GI50 with M14 is 95.5 µM (inactive); in the experiment with HCT-116, 27.5 µM (inactive); in the experiment on TK-10, > 100 µM (inactive); in the experiment with EKVX, 29.4 µM (inactive); in the experiment with ACHN, 52 µM (inactive); in the experiment on A549 it was 80.5 µM (inactive). Besides, the GI50 in the experiment on MOLT-4 was 43.7 µM (inactive); in the experiment on RXF 393 it was 53.8 µM (inactive); in the experiment on HOP-62, 43.2 µM (inactive); with UACC-257 it was > 100 µM (inactive); in the experiment with MCF7, 30.5 µM (inactive); in the experiment with NCI/ADR-RES it was 80.5 µM (inactive). The GI50 in the experiment on K562 is 89.9 µM (inactive); in the experiment with SK-OV-3, > 100 µM (inactive).
With `CC(=O)OCC1OC(n2c(S)nc(-c3ccccc3)c(C#N)c2=O)C(OC(C)=O)C(OC(C)=O)C1OC(C)=O` (stereo not drawn), the GI50 in the experiment with COLO 205 was > 100 µM (inactive); in the experiment on HOP-92 it was > 100 µM (inactive); with OVCAR-5, > 100 µM (inactive); in the experiment with HCT-15, greater than 100 µM; with IGROV-1, > 100 µM (inactive); in the experiment with Hs-578T, > 100 µM (inactive). Also, the GI50 in the experiment with M14, with HCT-116, in the experiment on TK-10, in the experiment with EKVX, in the experiment with ACHN and in the experiment on A549 was > 100 µM (inactive) throughout. Moreover, the GI50 in the experiment on MOLT-4, in the experiment with RXF 393, in the experiment with HOP-62, with UACC-257, in the experiment on MCF7 and in the experiment with NCI/ADR-RES was > 100 µM (inactive) throughout. For the same compound, the GI50 with K562 and in the experiment on SK-OV-3 was > 100 µM (inactive) in each case.
Consider `CC(=O)OC1C(COC(=O)c2ccccc2)OC(Nc2ncc(-c3ccc(Br)cc3)s2)C(OC(=O)c2ccccc2)C1OC(=O)c1ccccc1` (stereo not drawn), for which the GI50 is > 100 µM (inactive) with COLO 205; 93.1 µM (inactive) in the experiment on HOP-92; > 100 µM (inactive) with OVCAR-5; greater than 10 µM in the experiment on HCT-15; > 100 µM (inactive) with IGROV-1; > 100 µM (inactive) with Hs-578T. The GI50 in the experiment on M14, in the experiment on HCT-116, with TK-10, in the experiment on EKVX, with ACHN and with A549 was > 100 µM (inactive) each time. Further, the GI50 is > 100 µM (inactive) in the experiment with MOLT-4; > 100 µM (inactive) in the experiment on RXF 393; > 100 µM (inactive) with HOP-62; > 100 µM (inactive) in the experiment on UACC-257; > 100 µM (inactive) with MCF7; > 10 µM (inactive) in the experiment on NCI/ADR-RES. For the same compound, the GI50 in the experiment on K562 and in the experiment on SK-OV-3 was > 100 µM (inactive) each time.
In the case of `CN(C)CCOc1ccc(-c2c(Oc3ccc(Cl)cc3)c(=O)oc3ccccc23)cc1`, the GI50 is 3.61 µM (inactive) with COLO 205; 19.5 µM (inactive) with HOP-92; 15.8 µM (inactive) with OVCAR-5; 6.95 µM in the experiment on HCT-15; 4.7 µM (inactive) with IGROV-1; 8.59 µM (inactive) in the experiment with Hs-578T. Moreover, the GI50 with M14 was 2.21 µM (inactive); in the experiment on HCT-116 it was 3.82 µM (inactive); in the experiment on TK-10, 10.4 µM (inactive); with EKVX, 12.3 µM (inactive); in the experiment with ACHN, 18.6 µM (inactive); in the experiment with A549 it was 4.97 µM (inactive). In addition, the GI50 in the experiment on MOLT-4 was 5.47 µM (inactive); in the experiment on RXF 393 it was 8.09 µM (inactive); in the experiment on HOP-62, 21.9 µM (inactive); in the experiment on UACC-257, 5.13 µM (inactive); with MCF7, 4.41 µM (inactive); in the experiment with NCI/ADR-RES it was > 35.1 µM (inactive). For the same compound, the GI50 in the experiment on K562 is 3.84 µM (inactive); in the experiment with SK-OV-3, 10.4 µM (inactive).
As for `COc1c(-c2nc3ccc(N4CCN(C)CC4)nc3[nH]2)cc(OC)c2[nH]c(COC(C)=O)nc12`, the GI50 in the experiment on COLO 205 was 28.7 µM (inactive); in the experiment on HOP-92, > 100 µM (inactive); in the experiment with OVCAR-5 it was 55.7 µM (inactive); with HCT-15 it was 46 µM; with IGROV-1, 65.9 µM (inactive); in the experiment with Hs-578T it was > 100 µM (inactive). Further, the GI50 in the experiment with M14 is 19.5 µM (inactive); with HCT-116 it was 20 µM (inactive); in the experiment with TK-10 it was 38.5 µM (inactive); in the experiment with EKVX it was 54.2 µM (inactive); in the experiment on ACHN, 30.3 µM (inactive); with A549, 39.5 µM (inactive). Also, the GI50 was 21.8 µM (inactive) with RXF 393; 25 µM (inactive) in the experiment with HOP-62; 24.8 µM (inactive) in the experiment with UACC-257; 17.2 µM (inactive) in the experiment with MCF7; > 100 µM (inactive) in the experiment on NCI/ADR-RES; 1.52 µM (inactive) in the experiment with K562. Moreover, the GI50 in the experiment with SK-OV-3 was 14.5 µM (inactive).
Regarding `CC(CC(=O)O)(CC(=O)O)c1ccccc1`, the GI50 is > 100 µM (inactive) in the experiment with COLO 205; > 100 µM (inactive) in the experiment on HOP-92; > 100 µM (inactive) in the experiment with OVCAR-5; greater than 100 µM with HCT-15; > 100 µM (inactive) with IGROV-1; > 100 µM (inactive) in the experiment on Hs-578T. Further, the GI50 in the experiment with M14, in the experiment with HCT-116, in the experiment on TK-10, in the experiment with EKVX, in the experiment on ACHN and in the experiment on A549 was > 100 µM (inactive) each time. Besides, the GI50 was > 100 µM (inactive) in the experiment with RXF 393; > 100 µM (inactive) with HOP-62; > 100 µM (inactive) with UACC-257; > 100 µM (inactive) with MCF7; > 100 µM (inactive) with NCI/ADR-RES; 50.2 µM (inactive) with K562. Further, the GI50 in the experiment on SK-OV-3 is > 100 µM (inactive).
